Columns and labels:
Caskin2–Abi1 = Caskin2–Abi1 binding after growth factor stimulation (GFP-Trap, western blot) in GE11tetONβ1 cells; format: cell-based; conditions: for EGF-stimulated loss of Abi1 binding with inhibitor: inhibitor 100 nM, 1 h pretreatment, EGF 100 ng/ml for 15 min; for Caskin2–Abi1 binding after growth factor: EGF 100 ng/ml or PDGF 50 ng/ml, serum-starved 16 h
Experimental: For analysis of protein in whole-cell lysates, cells were washed three times with cold PBS, lysed in Nonidet P-40 lysis buffer [20 mM Tris-HCl pH 7.5, 100 mM NaCl, 1% NP-40), supplemented with Na3VO4 (1.5 mM), NaF (15 mM), protease inhibitor cocktail (1:1000; Sigma-Aldrich) and phosphatase inhibitor cocktail 3 (1:100; Sigma-Aldrich)] and cleared by centrifugation at 14,000 g for 1 h at 4°C.
(§1) GFP-Trap pulldown experiments were performed as follows. Cleared lysates containing equal amounts of proteins, as determined by a Pierce™ BCA Protein Assay, were incubated with GFP-Trap agarose beads (Chromotek) in a rotation wheel for 6 h at 4°C. Beads were washed three times with Nonidet P-40 lysis buffer and two times with cold PBS. Bound proteins and input samples (whole-cell lysates, 1%) were then loaded on gel and transferred to Immobilon-P transfer membranes, after which the blotted proteins were probed with antibodies, as described above.
For EGF- and PDGF-BB-induced stimulation of Caskin2 phosphorylation, cells were serum starved for 16 h in DMEM without FCS. The serum-starved cells were then treated with 100 ng/ml EGF (Sigma-Aldrich) or 50 ng/ml PDGF-BB (Sigma-Aldrich) at 37°C for the indicated times. Serum-starved cells treated with EGF and the signal transduction inhibitors AZD8055 (mTOR inhibitor, Selleckchem) and Tramatinib (MEK1/2 inhibitor, Selleckchem) were first pre-treated with the inhibitor for 60 min before they were treated with the growth factor for 15 min.

pCaskin2 (S878) = experiment: Caskin2 S878 phosphorylation (GFP-Trap, western blot) in GE11tetONβ1 cells; format: cell-based; conditions: for EGF-induced phosphorylation of Caskin2 at serine 878 with inhibitor: inhibitor 100 nM, 1 h pretreatment, EGF 100 ng/ml for 15 min; for Caskin2 phosphorylation on S878 after growth factor: EGF 100 ng/ml or PDGF 50 ng/ml, serum-starved 16 h
Excerpt: To explore the role of Caskin2-S878 further in regulating the Abi1 interaction, we developed a phospho-specific antibody targeting this serine. Unfortunately, high non-specific binding of the phospho-Caskin2 antibody protein sample prevented its consistent use in detecting phosphorylated Caskin2 in western blot analysis of whole-cell lysates. […] Abi1 functions downstream of growth factor receptor signaling to control Rac1-dependent actin rearrangements. Therefore, we hypothesized that Caskin2-S878 phosphorylation might occur downstream of growth factor receptor stimulation. To explore this, we conducted co-IP experiments using GE11^tetONβ1 cells stably expressing Caskin2-FL–GFP stimulated with either EGF or PDGF. […] To gain insight into the kinases involved in the EGF-induced phosphorylation of Caskin2 at serine 878, we pretreated the cells with mTOR (AZD8055) and MEK1/2 (Trametinib) inhibitors for 1 h before stimulation.
(§2) For analysis of protein in whole-cell lysates, cells were washed three times with cold PBS, lysed in Nonidet P-40 lysis buffer [20 mM Tris-HCl pH 7.5, 100 mM NaCl, 1% NP-40), supplemented with Na3VO4 (1.5 mM), NaF (15 mM), protease inhibitor cocktail (1:1000; Sigma-Aldrich) and phosphatase inhibitor cocktail 3 (1:100; Sigma-Aldrich)] and cleared by centrifugation at 14,000 g for 1 h at 4°C. After addition of an equal volume of 4× sample buffer (200 mM Tris-HCl pH 6.8, 10% SDS, 40% glycerol 0,1% Bromophenol Blue and 2% mercaptoethanol) and heating the samples at 95°C for 5 min, the samples were loaded on Novex NuPAGE 4–12% gradient Bis-Tris gels (Invitrogen) and transferred onto Immobilon® PVDF membranes. Membranes were blocked for at least 2 h in 2% BSA in TBST (10 mM Tris-HCl pH 7.5, 150 mM NaCl with 0.05% Tween 20] before incubation with primary antibody overnight at 4°C and with secondary antibody for 1 h at room temperature. After each incubation step, the membranes were washed twice with TBST and twice with TBS (TBST without Tween 20). Finally, proteins were visualized using Clarity™ Western ECL Substrate (Bio-Rad Laboratories), as described previously ([Wang et al., 2020b]).
as §1
For EGF- and PDGF-BB-induced stimulation of Caskin2 phosphorylation, cells were serum starved for 16 h in DMEM without FCS. […]

endogenous talin = experiment: GFP-Trap pulldown of talin by Caskin2-GFP constructs in COS-7 cells; format: binding; conditions: western blot, n=3
Experimental: (§3) For transient expression, COS-7 cells were grown to 70% confluence in 10 cm culture dishes and transfected with plasmid DNAs using the DEAE–dextran method ([Schaapveld et al., 1998]). Briefly, 4.5 µg of plasmid DNA was mixed with 500 µg/ml DEAE–dextran in 2.5 ml PBS. Cells were washed two times with PBS and then incubated for 30 min at 37°C with the DEAE–dextran solution. Subsequently, 80 µM chloroquine was added to the cells in 10 ml DMEM with FCS and cells were incubated at 37°C for 3 h. After aspiration of the medium, the cells were treated with 3 ml of DMEM with FCS containing 10% DMSO for 2.5 min. The DMSO solution was then removed and replaced with fresh medium, after which the cells were further incubated for 48–72 h before analysis.
(§4) For analysis of protein in whole-cell lysates, cells were washed three times with cold PBS, lysed in Nonidet P-40 lysis buffer [20 mM Tris-HCl pH 7.5, 100 mM NaCl, 1% NP-40), supplemented with Na3VO4 (1.5 mM), NaF (15 mM), protease inhibitor cocktail (1:1000; Sigma-Aldrich) and phosphatase inhibitor cocktail 3 (1:100; Sigma-Aldrich)] and cleared by centrifugation at 14,000 g for 1 h at 4°C. After addition of an equal volume of 4× sample buffer (200 mM Tris-HCl pH 6.8, 10% SDS, 40% glycerol 0,1% Bromophenol Blue and 2% mercaptoethanol) and heating the samples at 95°C for 5 min, the samples were loaded on Novex NuPAGE 4–12% gradient Bis-Tris gels (Invitrogen) and transferred onto Immobilon® PVDF membranes. […]
(§5) GFP-Trap pulldown experiments were performed as follows. Cleared lysates containing equal amounts of proteins, as determined by a Pierce™ BCA Protein Assay, were incubated with GFP-Trap agarose beads (Chromotek) in a rotation wheel for 6 h at 4°C. […]

14-3-3 proteins = experiment: GFP-Trap co-IP of 14-3-3 proteins in GE11tetONβ1 cells; format: binding
Experimental: as §4, §5

talin = experiment: GFP-Trap pulldown of talin by Caskin2-GFP constructs in GE11tetON β1 cells; format: binding; conditions: western blot, with and without doxycycline
Experimental: as §4, §5

Abi1 = experiment: Immunofluorescence colocalization of Caskin2-GFP constructs with Abi1 in GE11tetONβ1 cells; format: cell-based; conditions: cell periphery
Experimental: PA-JEB/β4 keratinocytes were seeded on glass coverslips and cultured for 24 h in complete KGM, and then continued to be cultured for a further 16 h in DMEM with 10% FCS. GE11^tetONβ1 and MCF7 cells were seeded on glass coverslips and cultured for 24 h in DMEM with 10% FCS. Cells were fixed in 2% paraformaldehyde and permeabilized with 0.2% Triton X-100 for 5 min, blocked with PBS containing 2% bovine serum albumin (BSA; Sigma-Aldrich) for 45 min and subsequently incubated with primary and secondary antibodies for 1 h. In between antibody steps, the coverslips were washed three times with PBS. Actin fibers were visualized by staining with Phalloidin–Alexa Fluor 647 (Cell Signaling Technology). Nuclei were stained with DAPI. Samples were mounted on glass slides in Mowiol after three washing steps with PBS. Images were acquired with a Leica TCS SP5 confocal microscope with a 63× (NA 1.4) oil objective. Software for image acquisition is Leica LAS AF 3.0.2 ([Wang et al., 2020b]).
Imaging analysis was performed using FIJI software ([Schindelin et al., 2012]). The levels of colocalization between Caskin2 and various other proteins, including integrin β4, FA proteins and CMSC components, was performed using Pearson's co-efficient analysis in the JACoP module of ImageJ ([Carisey et al., 2013]; [Wang et al., 2020b]).

[1] = test system: endogenous Abi1, Wasf1, Cyfip2 and Nckap1; experiment: GFP-Trap co-IP of endogenous WRC components in GE11tetONβ1 cells; format: binding
Experimental: as §4, §5

GE11tetONβ1 cells = experiment: Cell migration (time-lapse cell motility) of GE11tetONβ1 cells; format: cell-based; conditions: 20 h time-lapse, DMEM 1% FCS; two independent experiments
Experimental: Cell motility assays were conducted using time-lapse recordings of cells cultured on plastic 12-well plates in DMEM containing 1% FCS and 1% antibiotics. Phase-contrast images were acquired using a Zeiss AxioObserver Z.1 microscope equipped with a heated stage (37°C and 5% CO2), with a 10×/0.30 EC Plan-Neofluar Ph1 objective (Zeiss), captured with a Zeiss AxioCam MRm. Images were acquired every 10 min for 20 h. Cells were tracked manually using ImageJ; tracking data was analyzed using the Chemotaxis Tool plugin (Ibidi).

HA–Abi1 = experiment: GFP-Trap co-IP of HA–Abi1 by Caskin2-GFP constructs in COS-7 cells; format: binding; conditions: for HA–Abi1 binding: GFP-Trap, western blot, three independent experiments
Experimental: as §3, §2, §1

Caskin2 = experiment: GFP-Trap co-IP of Caskin2 by GFP-tagged talin constructs in COS-7 cells; format: binding, Human; conditions: western blot
Experimental: as §3
For analysis of protein in whole-cell lysates, cells were washed three times with cold PBS, lysed in Nonidet P-40 lysis buffer [20 mM Tris-HCl pH 7.5, 100 mM NaCl, 1% NP-40), supplemented with Na3VO4 (1.5 mM), NaF (15 mM), protease inhibitor cocktail (1:1000; Sigma-Aldrich) and phosphatase inhibitor cocktail 3 (1:100; Sigma-Aldrich)] and cleared by centrifugation at 14,000 g for 1 h at 4°C. […]
as §5

In the case of `COc1ccc(-c2ccc3c(N4CCOC[C@@H]4C)nc(N4CCOC[C@@H]4C)nc3n2)cc1CO` [AZD8055, reference compound], the “EGF-stimulated loss of Abi1 binding with inhibitor” value (Caskin2–Abi1) is reported as “only Trametinib, either alone or in combination with AZD8055 inhibited the EGF-stimulated loss of Abi1 binding” and the “EGF-induced phosphorylation of Caskin2 at serine 878 with inhibitor” value (pCaskin2 (S878)) is reported as “reduced phosphorylation of Caskin2”.
For `CC(=O)Nc1cccc(-n2c(=O)n(C3CC3)c(=O)c3c(Nc4ccc(I)cc4F)n(C)c(=O)c(C)c32)c1` [Trametinib, reference compound], the “EGF-stimulated loss of Abi1 binding with inhibitor” value (Caskin2–Abi1) was “inhibited the EGF-stimulated loss of Abi1 binding” and the “EGF-induced phosphorylation of Caskin2 at serine 878 with inhibitor” value (pCaskin2 (S878)) was “reduced phosphorylation of Caskin2”.
With “Caskin2-4A–GFP: GFP-fused Caskin2 mutant with four amino acids (L1183, F1190, L1197, L1201) replaced by alanine” the talin binding (endogenous talin) was “failed to pull down endogenous talin”.
“Caskin2-FL–GFP: full-length Caskin2 fused to GFP” was tested, and the “precipitation of 14-3-3 proteins” value (14-3-3 proteins) was “precipitated with both Caskin2-FL–GFP and Caskin2-PRR^4A–GFP”, the talin binding (talin) was “the interaction is independent of integrin β1” and the “colocalization with Abi1” value (Abi1) was “colocalized with Abi1 at the cell periphery”. The “precipitation of endogenous Abi1, Wasf1, Cyfip2 and Nckap1” value [1] was “precipitated endogenous Abi1, Wasf1, Cyfip2 and Nckap1”, the “increase in cell motility compared to GFP-only expression” value (GE11tetONβ1 cells) was roughly 45% and the “HA–Abi1 binding” value (HA–Abi1) was “efficiently pulled down”.
For “Caskin2-PRR^4A–GFP: Caskin2–GFP with PxPxxPxR mutated to AxAxxAxA”, the “precipitation of 14-3-3 proteins” value (14-3-3 proteins) was “precipitated with both Caskin2-FL–GFP and Caskin2-PRR^4A–GFP”, the “colocalization with Abi1” value (Abi1) was “no such colocalization was observed” and the “precipitation of endogenous Abi1, Wasf1, Cyfip2 and Nckap1” value [1] was “none of these were precipitated”. The cell motility (GE11tetONβ1 cells) was “migrated at a similar speed as GFP-only-expressing cells”, the talin binding (endogenous talin) was “talin binding was unaffected” and the “HA–Abi1 binding” value (HA–Abi1) was “neither of these constructs could precipitate co-expressed HA-tagged Abi1”.
“Caskin2-S877D–GFP: phosphomimetic mutant of Caskin2–GFP, S877 to aspartic acid” was tested, and the “HA–Abi1 binding” value (HA–Abi1) was “no obvious difference in binding”.
In the case of “Caskin2-S878D–GFP: phosphomimetic mutant of Caskin2–GFP, S878 to aspartic acid”, the “reduction of HA–Abi1 binding” value (HA–Abi1; co-IP, phosphomimetic mutant) is reported as roughly 80%.
In the case of “Caskin2-ΔLD–GFP: Caskin2 construct with the LD motif deleted (L1183–D1202 deleted) fused to GFP”, the talin binding (talin) is reported as “the LD motif is required for the interaction with talin” and the cell motility (GE11tetONβ1 cells) is reported as “no difference in motility between Caskin2-FL–GFP- and Caskin2-ΔLD–GFP- expressing cells”.
With “Caskin2-ΔPRR–GFP: Caskin2–GFP lacking amino acids 746–1035” the “colocalization with Abi1” value (Abi1) was “no such colocalization was observed”, the cell motility (GE11tetONβ1 cells) was “migrated at a similar speed as GFP-only-expressing cells” and the talin binding (endogenous talin) was “talin binding was unaffected”. The “HA–Abi1 binding” value (HA–Abi1) was “neither of these constructs could precipitate co-expressed HA-tagged Abi1”.
For EGF: growth factor (Sigma-Aldrich), the “Caskin2–Abi1 binding after growth factor” value (Caskin2–Abi1) was “reduction in Caskin2–Abi1 binding” and the “Caskin2 phosphorylation on S878 after growth factor” value (pCaskin2 (S878)) was “increase in Caskin2 phosphorylation on S878 within 5 min”.
For PDGF, the “Caskin2–Abi1 binding after growth factor” value (Caskin2–Abi1) was “reduction in Caskin2–Abi1 binding” and the “Caskin2 phosphorylation on S878 after growth factor” value (pCaskin2 (S878)) was “increase in Caskin2 phosphorylation on S878 within 5 min”.
For “Talin-R2E–GFP: talin mutant carrying two reverse charge mutations (R1523E and K1530E)”, the “Caskin2 binding to talin construct” value (Caskin2) was “slightly increased binding”.
With “full-length exogenous talin: full-length exogenous talin, GFP-tagged” the “Caskin2 binding to talin construct” value (Caskin2) was “only limited binding”.
